# According to patent US20230085307A1, “PYRIDAZINONE COMPOUND AND HERBICIDE” (NISSAN CHEMICAL CORPORATION, priority 2019, published 2023):
# Experiments:
# green foxtail [1] = assay: Test Example 5: herbicidal effect by foliage application, plastic box (Table 20, symbol G); type: in vivo, green foxtail (Setaria viridis); conditions: foliage application, 320 g/ha, evaluated three weeks after application
# How it was run: (§1)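 Plants were sown into sterilized diluvial soil under about 1.5 cm cover and kept in a greenhouse at 25° C. to 30° C. Fourteen days on, foliage received an even spray of the diluted emulsion. Herbicidal or crop effect was judged three weeks afterwards.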
# lambsquarters [2] = assay: Test Example 4: herbicidal effect by soil treatment (Table 19, symbol O); type: in vivo, lambsquarters (Chenopodium album); conditions: amount of applied herbicide 320 g/ha
# How it was run: (§2)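 Pre-emergence style soil spray: seeds under ~1.5 cm sterilized diluvial soil received a uniform coat of emulsion diluted to the predetermined herbicide amount. Greenhouse 25–30° C; readout at week three on previously defined criteria.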
# lambsquarters [3] = assay: Test Example 5: herbicidal effect by foliage application, plastic box (Table 20, symbol O); type: in vivo, lambsquarters (Chenopodium album); conditions: foliage application, 320 g/ha, evaluated three weeks after application
# How it was run: as §1
# wild oat [4] = assay: Test Example 5: herbicidal effect by foliage application, plastic box (Table 20, symbol I); type: in vivo, wild oat (Avena fatua); conditions: foliage application, 320 g/ha, evaluated three weeks after application
# How it was run: as §1
# velvetleaf [5] = assay: Test Example 5: herbicidal effect by foliage application, plastic box (Table 20, symbol M); type: in vivo, velvetleaf (Abutilon theophrasti); conditions: foliage application, 320 g/ha, evaluated three weeks after application
# How it was run: as §1
# redroot pigweed [6] = assay: Test Example 5: herbicidal effect by foliage application, plastic box (Table 20, symbol N); type: in vivo, redroot pigweed (Amaranthus retroflexus); conditions: foliage application, 320 g/ha, evaluated three weeks after application
# How it was run: as §1
# green foxtail [7] = assay: Test Example 4: herbicidal effect by soil treatment (Table 19, symbol G); type: in vivo, green foxtail (Setaria viridis); conditions: amount of applied herbicide 320 g/ha
# How it was run: as §2
# blackgrass [8] = assay: Test Example 4: herbicidal effect by soil treatment (Table 19, symbol J); type: in vivo, blackgrass (Alopecurus myosuroides); conditions: amount of applied herbicide 320 g/ha
# How it was run: as §2
# Chinese sprangletop = assay: Test Example 3: herbicidal effect by foliage application, Wagner pot (Table 18, symbol D); type: in vivo, chinese sprangletop (Leptochloa chinensis); conditions: amount of applied herbicide 320 g/ha
# How it was run: (§3)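 Plants were sown in alluvial soil held under 0.1–0.5 cm standing water and grown 14 days in a greenhouse at 25–30 °C. An emulsifiable formulation, water-diluted to the set dose, was then sprayed onto the foliage, and effects were scored three weeks later using previously defined criteria.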
# windgrass [9] = assay: Test Example 5: herbicidal effect by foliage application, plastic box (Table 20, symbol L); type: in vivo, windgrass (Apera spica-venti); conditions: foliage application, 320 g/ha, evaluated three weeks after application
# How it was run: as §1
# persian speedwell [10] = assay: Test Example 4: herbicidal effect by soil treatment (Table 19, symbol R); type: in vivo, Persian speedwell (Veronica persica); conditions: amount of applied herbicide 320 g/ha
# How it was run: as §2
# Italian ryegrass [11] = assay: Test Example 5: herbicidal effect by foliage application, plastic box (Table 20, symbol K); type: in vivo, Italian ryegrass (Lolium multiflorum); conditions: foliage application, 320 g/ha, evaluated three weeks after application
# How it was run: as §1
# chickweed [12] = assay: Test Example 5: herbicidal effect by foliage application, plastic box (Table 20, symbol P); type: in vivo, common chickweed (Stellaria media); conditions: foliage application, 320 g/ha, evaluated three weeks after application
# How it was run: as §1
# redroot pigweed [13] = assay: Test Example 4: herbicidal effect by soil treatment (Table 19, symbol N); type: in vivo, redroot pigweed (Amaranthus retroflexus); conditions: amount of applied herbicide 320 g/ha
# How it was run: as §2
# barnyard grass [14] = assay: Test Example 3: herbicidal effect by foliage application, Wagner pot (Table 18, symbol H); type: in vivo, barnyard grass (Echinochloa crus-galli); conditions: amount of applied herbicide 320 g/ha
# How it was run: as §3
# Japanese bulrush = assay: Test Example 1: herbicidal activity, application before weed generation under submerged conditions (Table 16, symbol B); type: in vivo, Japanese bulrush (Schoenoplectus juncoides); conditions: 320 g/ha applied herbicide
# How it was run: (§4)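 Emulsion formulation, water-diluted to set dose, was put onto the flooded surface (4 cm depth, alluvial soil) the same day weeds were sown and 2.5-leaf rice transplanted. After 3 weeks at 25-30 °C under glass, each species was rated 0 (≤5% kill) to 5 (≥90% kill).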
# blackgrass [15] = assay: Test Example 5: herbicidal effect by foliage application, plastic box (Table 20, symbol J); type: in vivo, blackgrass (Alopecurus myosuroides); conditions: foliage application, 320 g/ha, evaluated three weeks after application
# How it was run: as §1
# southern crabgrass [16] = assay: Test Example 4: herbicidal effect by soil treatment (Table 19, symbol F); type: in vivo, southern crabgrass (Digitaria ciliaris); conditions: amount of applied herbicide 320 g/ha
# How it was run: as §2
# chickweed [17] = assay: Test Example 4: herbicidal effect by soil treatment (Table 19, symbol P); type: in vivo, common chickweed (Stellaria media); conditions: amount of applied herbicide 320 g/ha
# How it was run: as §2
# persian speedwell [18] = assay: Test Example 5: herbicidal effect by foliage application, plastic box (Table 20, symbol R); type: in vivo, Persian speedwell (Veronica persica); conditions: foliage application, 320 g/ha, evaluated three weeks after application
# How it was run: as §1
# barnyard grass [19] = assay: Test Example 5: herbicidal effect by foliage application, plastic box (Table 20, symbol H); type: in vivo, barnyard grass (Echinochloa crus-galli); conditions: foliage application, 320 g/ha, evaluated three weeks after application
# How it was run: as §1
# rice flat sedge = assay: Test Example 3: herbicidal effect by foliage application, Wagner pot (Table 18, symbol E); type: in vivo, rice flat sedge (Cyperus iria); conditions: amount of applied herbicide 320 g/ha
# How it was run: as §3
# windgrass [20] = assay: Test Example 4: herbicidal effect by soil treatment (Table 19, symbol L); type: in vivo, windgrass (Apera spica-venti); conditions: amount of applied herbicide 320 g/ha
# How it was run: as §2
# late watergrass = assay: Test Example 1: herbicidal activity, application before weed generation under submerged conditions (Table 16, symbol A); type: in vivo, late watergrass (Echinochloa oryzicola); conditions: 320 g/ha applied herbicide
# How it was run: as §4
# Italian ryegrass [21] = assay: Test Example 4: herbicidal effect by soil treatment (Table 19, symbol K); type: in vivo, Italian ryegrass (Lolium multiflorum); conditions: amount of applied herbicide 320 g/ha
# How it was run: as §2
# southern crabgrass [22] = assay: Test Example 5: herbicidal effect by foliage application, plastic box (Table 20, symbol F); type: in vivo, southern crabgrass (Digitaria ciliaris); conditions: foliage application, 320 g/ha, evaluated three weeks after application
# How it was run: as §1
# barnyard grass [23] = assay: Test Example 4: herbicidal effect by soil treatment (Table 19, symbol H); type: in vivo, barnyard grass (Echinochloa crus-galli); conditions: amount of applied herbicide 320 g/ha
# How it was run: as §2
# wild oat [24] = assay: Test Example 4: herbicidal effect by soil treatment (Table 19, symbol I); type: in vivo, wild oat (Avena fatua); conditions: amount of applied herbicide 320 g/ha
# How it was run: as §2
# oval-leafed pondweed = assay: Test Example 1: herbicidal activity, application before weed generation under submerged conditions (Table 16, symbol C); type: in vivo, oval-leafed pondweed (Monochoria vaginalis); conditions: 320 g/ha applied herbicide
# How it was run: as §4
# velvetleaf [25] = assay: Test Example 4: herbicidal effect by soil treatment (Table 19, symbol M); type: in vivo, velvetleaf (Abutilon theophrasti); conditions: amount of applied herbicide 320 g/ha
# How it was run: as §2
smiles,measurement,setting,value
CCCC(=O)Oc1c(C)nn(C)c(=O)c1-c1c(-c2ccccc2C(F)(F)F)sc2ccc(F)cc12 [2-230],herbicidal effect on G: green foxtail (criteria 0-5),green foxtail [1],3 (Herbicidal rate of 40% or more and less than 70%)
same,herbicidal effect on O: lambsquarters,lambsquarters [2],0 (Herbicidal rate of 5% or less (almost no effect))
same,herbicidal effect on O: lambsquarters (criteria 0-5),lambsquarters [3],4 (Herbicidal rate of 70% or more and less than 90%)
same,herbicidal effect on I: wild oat (criteria 0-5),wild oat [4],0 (Herbicidal rate of 5% or less (almost no effect))
same,herbicidal effect on M: velvetleaf (criteria 0-5),velvetleaf [5],5 (Herbicidal rate of 90% or more (almost completely withered))
same,herbicidal effect on N: redroot pigweed (criteria 0-5),redroot pigweed [6],5 (Herbicidal rate of 90% or more (almost completely withered))
same,herbicidal effect on G: green foxtail,green foxtail [7],0 (Herbicidal rate of 5% or less (almost no effect))
same,herbicidal effect on J: blackgrass,blackgrass [8],0 (Herbicidal rate of 5% or less (almost no effect))
same,herbicidal effect on D: Chinese sprangletop,Chinese sprangletop,5 (Herbicidal rate of 90% or more (almost completely withered))
same,herbicidal effect on L: windgrass (criteria 0-5),windgrass [9],3 (Herbicidal rate of 40% or more and less than 70%)
same,herbicidal effect on R: persian speedwell,persian speedwell [10],0 (Herbicidal rate of 5% or less (almost no effect))
same,herbicidal effect on K: Italian ryegrass (criteria 0-5),Italian ryegrass [11],3 (Herbicidal rate of 40% or more and less than 70%)
same,herbicidal effect on P: chickweed (criteria 0-5),chickweed [12],5 (Herbicidal rate of 90% or more (almost completely withered))
same,herbicidal effect on N: redroot pigweed,redroot pigweed [13],0 (Herbicidal rate of 5% or less (almost no effect))
same,herbicidal effect on H: barnyard grass,barnyard grass [14],4 (Herbicidal rate of 70% or more and less than 90%)
same,Herbicidal effect on B: Japanese bulrush (grade 0-5),Japanese bulrush,0 (Herbicidal rate of 5% or less (almost no effect))
same,herbicidal effect on J: blackgrass (criteria 0-5),blackgrass [15],0 (Herbicidal rate of 5% or less (almost no effect))
same,herbicidal effect on F: southern crabgrass,southern crabgrass [16],0 (Herbicidal rate of 5% or less (almost no effect))
same,herbicidal effect on P: chickweed,chickweed [17],3 (Herbicidal rate of 40% or more and less than 70%)
same,herbicidal effect on R: persian speedwell (criteria 0-5),persian speedwell [18],5 (Herbicidal rate of 90% or more (almost completely withered))
same,herbicidal effect on H: barnyard grass (criteria 0-5),barnyard grass [19],2 (Herbicidal rate of 20% or more and less than 40%)
same,herbicidal effect on E: rice flat sedge,rice flat sedge,5 (Herbicidal rate of 90% or more (almost completely withered))
same,herbicidal effect on L: windgrass,windgrass [20],0 (Herbicidal rate of 5% or less (almost no effect))
same,Herbicidal effect on A: late watergrass (grade 0-5),late watergrass,3 (Herbicidal rate of 40% or more and less than 70%)
same,herbicidal effect on K: Italian ryegrass,Italian ryegrass [21],2 (Herbicidal rate of 20% or more and less than 40%)
same,herbicidal effect on F: southern crabgrass (criteria 0-5),southern crabgrass [22],0 (Herbicidal rate of 5% or less (almost no effect))
same,herbicidal effect on H: barnyard grass,barnyard grass [23],0 (Herbicidal rate of 5% or less (almost no effect))
same,herbicidal effect on I: wild oat,wild oat [24],0 (Herbicidal rate of 5% or less (almost no effect))
same,Herbicidal effect on C: oval-leafed pondweed (grade 0-5),oval-leafed pondweed,0 (Herbicidal rate of 5% or less (almost no effect))
same,herbicidal effect on M: velvetleaf,velvetleaf [25],0 (Herbicidal rate of 5% or less (almost no effect))
